Source: patent US20230286970A1, “NOVEL OXADIAZOLE-BASED SELECTIVE HDAC6 INHIBITORS” (ITALFARMACO S.P.A., priority 2020, published 2023)

Tests used:
recombinant human HDAC6 = recombinant human HDAC6 (Homo sapiens (Human), UniProt Q9UBN7); assay: Enzymatic screening, HDAC6 inhibition (fluorogenic FdL_G substrate); type: biochemical
In short: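 Enzyme was preincubated with compound (8 doses, triplicate, 1% DMSO) in 25 mM Tris-HCl pH 8, 130 mM NaCl, 0.05% Tween-20, 10% glycerol, with BSA. A FLUOR DE LYS-Green substrate was then added, and fluorescence was read after developer plus 2 μM TSA.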

recombinant human HDAC1 = recombinant human HDAC1 (Homo sapiens (Human), UniProt Q13547); assay: Enzymatic screening, HDAC1 inhibition (fluorogenic FdL_G substrate); type: biochemical
In short: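 Recombinant human HDAC1 inhibition was measured fluorometrically using the FLUOR DE LYS-Green (FdL_G) substrate. Compounds at 8 doses (1% DMSO final) in Tris-HCl pH 8 buffer with NaCl, Tween-20 and glycerol were preincubated in triplicate with enzyme and 1 mg/mL BSA, then given substrate. Developer I plus 2 μM TSA was added, and fluorescence read after 25 minutes in the dark.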

recombinant human HDAC6, sequence (Q9UBN7 whole entry): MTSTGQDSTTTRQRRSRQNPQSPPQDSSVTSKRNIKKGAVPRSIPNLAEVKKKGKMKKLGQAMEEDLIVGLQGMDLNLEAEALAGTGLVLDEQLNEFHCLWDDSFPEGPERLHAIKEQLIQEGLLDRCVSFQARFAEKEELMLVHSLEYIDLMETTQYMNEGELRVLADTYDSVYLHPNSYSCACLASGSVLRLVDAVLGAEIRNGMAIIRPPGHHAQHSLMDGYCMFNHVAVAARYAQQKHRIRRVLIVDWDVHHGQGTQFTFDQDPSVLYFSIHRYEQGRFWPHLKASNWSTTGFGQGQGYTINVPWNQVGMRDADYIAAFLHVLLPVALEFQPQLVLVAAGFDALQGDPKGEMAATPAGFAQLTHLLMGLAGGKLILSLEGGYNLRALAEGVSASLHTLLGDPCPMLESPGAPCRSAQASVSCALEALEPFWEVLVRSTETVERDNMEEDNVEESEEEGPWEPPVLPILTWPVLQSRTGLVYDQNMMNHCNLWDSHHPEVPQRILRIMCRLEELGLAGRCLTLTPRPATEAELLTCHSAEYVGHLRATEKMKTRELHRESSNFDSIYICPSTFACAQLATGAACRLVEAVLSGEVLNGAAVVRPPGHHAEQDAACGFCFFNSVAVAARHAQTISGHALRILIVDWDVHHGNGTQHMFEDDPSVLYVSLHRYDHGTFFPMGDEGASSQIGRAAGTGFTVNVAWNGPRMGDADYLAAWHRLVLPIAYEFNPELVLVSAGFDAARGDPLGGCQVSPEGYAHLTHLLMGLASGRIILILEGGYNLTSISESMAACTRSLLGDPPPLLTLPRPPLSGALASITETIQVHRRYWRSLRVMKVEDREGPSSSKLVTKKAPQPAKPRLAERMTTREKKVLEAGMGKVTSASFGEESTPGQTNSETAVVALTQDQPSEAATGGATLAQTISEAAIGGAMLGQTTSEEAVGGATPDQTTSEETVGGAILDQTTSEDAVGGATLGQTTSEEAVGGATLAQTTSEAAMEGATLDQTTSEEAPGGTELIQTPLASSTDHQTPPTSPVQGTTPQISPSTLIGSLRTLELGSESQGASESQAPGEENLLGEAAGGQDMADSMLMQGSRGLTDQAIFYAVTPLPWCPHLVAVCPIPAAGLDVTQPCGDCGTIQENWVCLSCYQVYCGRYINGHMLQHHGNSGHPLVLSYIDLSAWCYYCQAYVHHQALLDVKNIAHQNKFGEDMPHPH
recombinant human HDAC1, sequence (Q13547 whole entry): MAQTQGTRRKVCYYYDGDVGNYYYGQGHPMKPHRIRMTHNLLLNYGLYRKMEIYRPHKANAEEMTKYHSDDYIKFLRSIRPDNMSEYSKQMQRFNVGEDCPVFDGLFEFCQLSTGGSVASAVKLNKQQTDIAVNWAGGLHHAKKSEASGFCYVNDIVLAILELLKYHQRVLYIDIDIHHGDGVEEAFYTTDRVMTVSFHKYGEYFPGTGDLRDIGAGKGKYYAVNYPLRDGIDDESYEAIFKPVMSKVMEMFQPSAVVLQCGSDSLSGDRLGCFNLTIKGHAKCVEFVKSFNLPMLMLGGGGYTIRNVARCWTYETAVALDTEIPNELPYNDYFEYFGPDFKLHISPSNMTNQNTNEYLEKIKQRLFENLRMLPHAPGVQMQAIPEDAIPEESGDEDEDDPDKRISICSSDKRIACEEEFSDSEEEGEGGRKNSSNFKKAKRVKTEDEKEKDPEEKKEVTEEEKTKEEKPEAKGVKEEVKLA

| Structure (SMILES) | IC50 (recombinant human HDAC6) [nM] | IC50 (recombinant human HDAC1) [nM] |
| --- | --- | --- |
| Nc1ccc(-c2cn(C(Cc3ccc(Cl)cc3)c3ccc(-c4nnc(C(F)F)o4)cc3)nn2)cn1 (stereo not drawn) [Compd. 231, 5-(1-(2-(4-chlorophenyl)-1-(4-(5-(difluoromethyl)-1,3,4-oxadiazol-2-yl)phenyl)ethyl)-1H-1,2,3-triazol-4-yl)pyridin-2-amine] | 197 | > 200000 |
| Nc1ncc(-c2cccc(-c3nnn(Cc4ccc(-c5nnc(C(F)F)o5)cc4)n3)c2)s1 [compound 200, 5-(3-(2-(4-(5-(difluoromethyl)-1,3,4-oxadiazol-2-yl)benzyl)-2H-tetrazol-5-yl)phenyl)thiazol-2-amine] | 113 | > 200000 |
| FC(F)c1nnc(-c2ccc(Cn3nnc(-c4cccc5cnccc45)n3)cc2)o1 [compound 153, 2-(difluoromethyl)-5-(4-((5-(isoquinolin-5-yl)-2H-tetrazol-2-yl)methyl)phenyl)-1,3,4-oxadiazole] | 66 | > 200000 |
| CN1CCc2ccc(-c3nnn(Cc4ccc(-c5nnc(C(F)F)o5)cc4)n3)cc2C1=O [compound 173, 7-(2-(4-(5-(difluoromethyl)-1,3,4-oxadiazol-2-yl)benzyl)-2H-tetrazol-5-yl)-2-methyl-3,4-dihydroisoquinolin-1 (2H)-one] | 86 | > 200000 |
| Nc1cccc(-c2nnn(Cc3ccc(-c4nnc(C(F)F)o4)cc3)n2)c1 [compound 129, 3-[2-[[4-[5-(difluoromethyl)-1,3,4-oxadiazol-2-yl]phenyl]methyl]tetrazol-5-yl]aniline] | 50 | > 200000 |
| O=C1Nc2ccc(-c3nnn(Cc4ccc(-c5nnc(C(F)F)o5)cn4)n3)cc2NC12CCCC2 [compound 27, 7′-(2-((5-(5-(difluoromethyl)-1,3,4-oxadiazol-2-yl)pyridin-2-yl)methyl)-2H-tetrazol-5-yl)-1′,4′-dihydro-3′H-spiro[cyclopentane-1,2′-quinoxalin]-3′-one] | 9 | > 200000 |
| FC(F)c1nnc(-c2ccc(Cn3nnc(-c4cccc(-c5cnc(N6CCOCC6)s5)c4)n3)cc2)o1 [compd. 253, 4-(5-(3-(2-(4-(5-(difluoromethyl)-1,3,4-oxadiazol-2-yl)benzyl)-2H-tetrazol-5-yl)phenyl)thiazol-2-yl)morpholine] | 352 | > 200000 |

Second part, the compound after the results:

| IC50 (recombinant human HDAC6) [nM] | IC50 (recombinant human HDAC1) [nM] | Structure (SMILES) |
| --- | --- | --- |
| 17 | 199000 | Cn1c(N)nc2cc(-c3cn(Cc4ccc(-c5nnc(C(F)F)o5)cc4F)nn3)ccc21 [compound 378, 5-[1-[[4-[5-(difluoromethyl)-1,3,4-oxadiazol-2-yl]-2-fluorophenyl]methyl]triazol-4-yl]-1-methylbenzimidazol-2-amine] |
| 59 | > 200000 | CNc1ccc2cc(-c3cn(Cc4ccc(-c5nnc(C(F)F)o5)cc4)nn3)ccc2n1 [compound 142, 6-(1-(4-(5-(difluoromethyl)-1,3,4-oxadiazol-2-yl)benzyl)-1H-1,2,3-triazol-4-yl)-N-methylquinolin-2-amine] |
| 45 | > 1e+06 | O=C(Nc1cccc(-c2cn(Cc3ccc(-c4nnc(C(F)F)o4)cc3Cl)nn2)c1)N1CCOCC1 [compound 337, N-[3-[1-[[2-chloro-4-[5-(difluoromethyl)-1,3,4-oxadiazol-2-yl]phenyl]methyl]triazol-4-yl]phenyl]morpholine-4-carboxamide] |
| 21 | > 30000 | Nc1ccc(-c2cn(Cc3ccc(-c4nnc(C(F)F)o4)cc3F)nn2)cn1 [compound 48, 5-(1-(4-(5-(difluoromethyl)-1,3,4-oxadiazol-2-yl)-2-fluorobenzyl)-1H-1,2,3-triazol-4-yl)pyridin-2-amine] |
| 19 | > 200000 | O=C1NCc2ccc(-c3nnn(Cc4ccc(-c5nnc(C(F)F)o5)cc4F)n3)cc21 [compound 40, 6-(2-(4-(5-(difluoromethyl)-1,3,4-oxadiazol-2-yl)-2-fluorobenzyl)-2H-tetrazol-5-yl)isoindolin-1-one] |
